What all share (format): biochemical
The target of assay [1] is PKB (h) (Homo sapiens, UniProt P31749). Briefly: Kinase inhibition assay (33P-ATP, P30 filter, scintillation counting): PKB. Conditions: 40 min; 30µM Testsubstanz (100 µM ATP); read-out: Hemmung von Kinasen in % PKB (h). Here is the method:
(§1) Alle Kinasen werden auf zehnfache Arbeitskonzentration vor Anwendung in dem Essay verdünnt. Die Zusammensetzung des Verdünnungspuffers ist für jede Kinase in der nachfolgenden Tabelle angegeben.
(§2) Alle Substrate werden gelöst und auf eine Stammlösung in entsalztem Wasser verdünnt.
PKBα (h)(5-10mU) wird in einem Endreaktionsvolumen von 25 µl mit 8 mM MOPS pH 7.0, 0.2 mM EDTRA, 30 µM GRPRTSSFAEGKK, 10 mM MgAcetat und [γ-^33P-ATP] inkubiert (spezifische Aktivität etwa 50 cpm/pmol, Konzentration wie erforderlich). Die Reaktion wird durch Zugabe von Mg^2+[γ-^33P-ATP] initiiert. Nach 40-minütiger Inkubation bei Raumtemperatur wird die Reaktion durch Zugabe von 5 µl einer 3 %igen Phosphorsäurelösung gestoppt. 10 µl der Reaktion werden dann auf ein P30-Filter gegeben und dreimal jeweils 5 Minuten in 50 mM Phosphorsäure und einmal in Methanol gewaschen. Anschließend wird getrocknet und eine Szintillationszählung durchgeführt.

Assay [2] concerns the target JNK3 (r) (Rattus norvegicus, UniProt P49187). In words: Kinase inhibition assay: JNK3. Conditions: 30µM Testsubstanz (100 µM ATP); read-out: Hemmung von Kinasen in % JNK3 (r).
From the text: as §1, §2

Assay [3] has as its target Lck (h) (Homo sapiens, UniProt P06239). In words: Kinase inhibition assay (33P-ATP, P30 filter, scintillation counting): Lck. Conditions: 30µM Testsubstanz (100 µM ATP); read-out: Hemmung von Kinasen in % Lck (h). Here is the method: as §1, §2
(§3) Lck (h)(5-10 mU) in einem Endreaktionsvolumen von 25 µl wird mit 50 mM Tris pH 7.5, 0.1 mM EGTA, 0.1 mM NaVanadate, 250 µM KVEKIGEGTYGVVYK (Cdc2 Peptid), 10 mM MgAcetat und [γ-^33P-ATP] inkubiert (spezifische Aktivität etwa 500 cpm/pmol, Konzentration wie erforderlich). Die Reaktion wird durch Zugabe von Mg^2+[γ-^33P-ATP] initiiert. Nach 40-minütiger Inkubation bei Raumtemperatur wird die Reaktion durch Zugabe von 5 µl einer 3 %igen Phosphorsäurelösung gestoppt. 10 µl der Reaktion werden dann auf ein P30-Filter gegeben und dreimal jeweils 5 Minuten in 50 mM Phosphorsäure und einmal in Methanol gewaschen. Anschließend wird getrocknet und eine Szintillationszählung durchgeführt.

Assay [4] has as its target MAPK2 (h) (Homo sapiens, UniProt P28482). Briefly: Kinase inhibition assay: MAPK2. Conditions: 30µM Testsubstanz (100 µM ATP); read-out: Hemmung von Kinasen in % MAPK2 (h).
From the text: as §1, §2

For assay [5], the target named is SAPK2a (h) (Homo sapiens, UniProt Q16539). In words: Kinase inhibition assay (33P-ATP, P30 filter, scintillation counting): SAPK2a. Conditions: 30µM Testsubstanz (100 µM ATP); read-out: Hemmung von Kinasen in % SAPK2a (h). Here is the method: as §1, §2
as §3, with “SAPK2a (h) wird in” for “Lck (h)(5-10 mU) in”, “µl” for “µl wird”, “mit 25” for “mit 50”, “pH 7,5, 0.02” for “pH 7.5, 0.1”, “EGTA, 0.33 mg/ml Myelin-Basisprotein,” for “EGTA, 0.1 mM NaVanadate, 250 µM KVEKIGEGTYGVVYK (Cdc2 Peptid),”, “etwa 50” for “etwa 500”

Assay [6] deals with MAPK1 (h) (Homo sapiens, UniProt P27361). In words: Kinase inhibition assay: MAPK1. To be noted: 30µM Testsubstanz (100 µM ATP); read-out: Hemmung von Kinasen in % MAPK1 (h).
From the text: as §1, §2

Assay [7] deals with MEK1 (h) (Homo sapiens, UniProt Q02750). Briefly: Kinase inhibition assay: MEK1 (coupled to MAPK2 assay). Conditions: 30µM Testsubstanz (100 µM ATP); read-out: Hemmung von Kinasen in % MEK1 (h). Here is the method:
as §1, §2
MEK1 (h)(1-5 mU) in einem Endreaktionsvolumen von 25 µl wird mit 50 mM Tris pH 7.5, 0.2 mM EGTA, 0.1 % b-Mercaptoethanol, 0,01 % Brij-35, 1 µM inaktives MAPK2 (m), 10 mM MgAcetat und kaltem ATP inkubiert (Konzentration wie erforderlich). Die Reaktion wird durch Zugabe von MgATB initiiert. Nach 40-minütiger Inkubation bei Raumtemperatur werden […] dieses Inkubationsgemisches dazu verwendet, den oben beschriebenen MAPK2-Assay zu initiieren.

Assay [8] concerns PKA (h). Briefly: Kinase inhibition assay (33P-ATP, P30 filter, scintillation counting): PKA. Conditions: 30µM Testsubstanz (100 µM ATP); 40 min.
For assay [9], the system named is ROCKII (h). In words: Kinase inhibition assay (33P-ATP, P30 filter, scintillation counting): ROCK-II. To be noted: 30µM Testsubstanz (100 µM ATP); 40 min.
Assay [10] deals with c-RAF (h) (Homo sapiens, UniProt P04049). Briefly: Kinase inhibition assay (33P-ATP, P30 filter, scintillation counting): c-RAF. To be noted: 40 min; 30µM Testsubstanz (100 µM ATP); read-out: Hemmung von Kinasen in % c-RAF (h). Here is the method: as §1, §2
as §3, with “c-RAF (ha)(5-10 mU)” for “Lck (h)(5-10 mU)”, “mit 25” for “mit 50”, “pH 7.5,.0.02” for “pH 7.5, 0.1”, “EGTA, 0.66 mg/ml Myelin-Basisprotein,” for “EGTA, 0.1 mM NaVanadate, 250 µM KVEKIGEGTYGVVYK (Cdc2 Peptid),”, “etwa 50” for “etwa 500”

For assay [11], the target named is GSK3β (h) (Homo sapiens, UniProt P49841). In words: Kinase inhibition assay (33P-ATP, P30 filter, scintillation counting): GSK3β. To be noted: 30µM Testsubstanz (100 µM ATP); read-out: Hemmung von Kinasen in % GSK3β (h). Here is the method: as §1, §2
GSK3β (h)(5-10mU) in einem Endreaktionsvolumen von 25 µl wird mit 8 mM MOPS pH 7.0, 0.2 mM EDTA, 20 µM […](p) EDEEE (phospho GS2 Peptid), 10 mM MgAcetat und [γ-^33P-ATP] inkubiert (spezifische Aktivität etwa 500 cpm/pmol, Konzentration wie erforderlich). Die Reaktion wird durch Zugabe von Mg^2+[γ-^33P-ATP] initiiert. Nach 40-minütiger Inkubation bei Raumtemperatur wird die Reaktion durch Zugabe von 5 µl einer 3 %igen Phosphorsäurelösung gestoppt. 10 µl der Reaktion werden dann auf ein P30-Filter gegeben und dreimal jeweils 5 Minuten in 50 mM Phosphorsäure und einmal in Methanol gewaschen. Anschließend wird getrocknet und eine Szintillationszählung durchgeführt.

Chain of SAPK2a (h) (Q16539 whole entry): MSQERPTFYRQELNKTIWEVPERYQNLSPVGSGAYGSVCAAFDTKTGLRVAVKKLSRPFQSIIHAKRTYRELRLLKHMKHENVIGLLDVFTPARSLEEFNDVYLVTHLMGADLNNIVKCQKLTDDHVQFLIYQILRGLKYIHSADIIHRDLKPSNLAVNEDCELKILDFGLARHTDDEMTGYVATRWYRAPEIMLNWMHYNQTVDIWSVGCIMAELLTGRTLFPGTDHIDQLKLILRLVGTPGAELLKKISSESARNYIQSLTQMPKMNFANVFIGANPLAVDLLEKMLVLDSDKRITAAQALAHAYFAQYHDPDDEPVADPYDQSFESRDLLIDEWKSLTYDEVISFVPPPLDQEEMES
Chain of MAPK1 (h) (P27361 whole entry): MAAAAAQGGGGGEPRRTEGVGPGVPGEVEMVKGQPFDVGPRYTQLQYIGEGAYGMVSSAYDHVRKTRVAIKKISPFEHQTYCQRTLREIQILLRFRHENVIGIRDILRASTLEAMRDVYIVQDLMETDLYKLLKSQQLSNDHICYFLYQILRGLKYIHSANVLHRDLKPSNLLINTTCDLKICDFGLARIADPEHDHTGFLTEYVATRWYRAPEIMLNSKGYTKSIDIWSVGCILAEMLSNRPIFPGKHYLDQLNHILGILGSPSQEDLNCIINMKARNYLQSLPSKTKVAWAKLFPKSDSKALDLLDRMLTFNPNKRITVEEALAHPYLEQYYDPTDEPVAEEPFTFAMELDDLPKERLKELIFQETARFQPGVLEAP
Chain of GSK3β (h) (P49841 whole entry): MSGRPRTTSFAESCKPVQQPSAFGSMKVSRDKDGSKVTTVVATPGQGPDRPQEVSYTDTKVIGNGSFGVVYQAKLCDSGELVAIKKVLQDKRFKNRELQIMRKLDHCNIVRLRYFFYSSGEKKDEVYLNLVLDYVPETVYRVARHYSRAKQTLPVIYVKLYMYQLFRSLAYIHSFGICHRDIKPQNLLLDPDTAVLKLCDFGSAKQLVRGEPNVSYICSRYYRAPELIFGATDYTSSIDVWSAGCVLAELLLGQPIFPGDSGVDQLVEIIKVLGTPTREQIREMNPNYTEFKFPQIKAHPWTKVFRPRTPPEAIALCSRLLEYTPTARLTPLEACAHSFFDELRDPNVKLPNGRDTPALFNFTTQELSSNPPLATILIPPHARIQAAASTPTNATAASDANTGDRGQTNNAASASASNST
Chain of Lck (h) (P06239 whole entry): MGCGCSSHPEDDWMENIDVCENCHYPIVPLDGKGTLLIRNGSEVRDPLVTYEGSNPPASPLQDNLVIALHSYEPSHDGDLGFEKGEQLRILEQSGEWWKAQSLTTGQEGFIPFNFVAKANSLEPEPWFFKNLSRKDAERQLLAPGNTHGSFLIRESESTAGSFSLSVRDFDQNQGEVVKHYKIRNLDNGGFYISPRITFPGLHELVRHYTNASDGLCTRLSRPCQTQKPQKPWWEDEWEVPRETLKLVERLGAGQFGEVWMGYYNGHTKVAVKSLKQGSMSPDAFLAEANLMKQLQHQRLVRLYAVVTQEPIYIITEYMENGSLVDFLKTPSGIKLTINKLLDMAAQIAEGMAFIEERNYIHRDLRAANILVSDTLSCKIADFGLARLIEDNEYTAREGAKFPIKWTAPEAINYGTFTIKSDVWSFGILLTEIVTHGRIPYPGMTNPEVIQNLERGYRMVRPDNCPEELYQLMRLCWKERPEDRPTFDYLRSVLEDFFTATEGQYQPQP
Chain of MEK1 (h) (Q02750 whole entry): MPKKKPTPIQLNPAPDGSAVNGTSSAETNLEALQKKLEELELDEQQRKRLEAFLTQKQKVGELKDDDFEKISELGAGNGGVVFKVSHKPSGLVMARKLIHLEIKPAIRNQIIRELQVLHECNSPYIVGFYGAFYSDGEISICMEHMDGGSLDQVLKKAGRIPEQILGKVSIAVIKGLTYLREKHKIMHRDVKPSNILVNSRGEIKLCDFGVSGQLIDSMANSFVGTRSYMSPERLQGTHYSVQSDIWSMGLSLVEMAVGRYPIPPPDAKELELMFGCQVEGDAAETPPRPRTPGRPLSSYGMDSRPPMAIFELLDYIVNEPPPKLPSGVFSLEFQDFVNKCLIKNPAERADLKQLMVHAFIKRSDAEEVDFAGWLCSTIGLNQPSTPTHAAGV
Chain of MAPK2 (h) (P28482 whole entry): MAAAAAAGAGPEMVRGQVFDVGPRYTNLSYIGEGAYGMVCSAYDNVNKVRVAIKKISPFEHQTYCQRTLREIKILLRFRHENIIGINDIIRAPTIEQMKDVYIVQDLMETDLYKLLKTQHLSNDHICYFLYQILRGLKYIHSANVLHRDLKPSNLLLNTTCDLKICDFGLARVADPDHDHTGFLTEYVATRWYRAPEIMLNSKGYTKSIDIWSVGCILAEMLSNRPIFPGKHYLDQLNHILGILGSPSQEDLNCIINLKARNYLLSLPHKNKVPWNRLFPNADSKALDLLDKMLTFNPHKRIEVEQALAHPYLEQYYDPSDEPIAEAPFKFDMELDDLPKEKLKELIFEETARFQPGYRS
Chain of PKB (h) (P31749 whole entry): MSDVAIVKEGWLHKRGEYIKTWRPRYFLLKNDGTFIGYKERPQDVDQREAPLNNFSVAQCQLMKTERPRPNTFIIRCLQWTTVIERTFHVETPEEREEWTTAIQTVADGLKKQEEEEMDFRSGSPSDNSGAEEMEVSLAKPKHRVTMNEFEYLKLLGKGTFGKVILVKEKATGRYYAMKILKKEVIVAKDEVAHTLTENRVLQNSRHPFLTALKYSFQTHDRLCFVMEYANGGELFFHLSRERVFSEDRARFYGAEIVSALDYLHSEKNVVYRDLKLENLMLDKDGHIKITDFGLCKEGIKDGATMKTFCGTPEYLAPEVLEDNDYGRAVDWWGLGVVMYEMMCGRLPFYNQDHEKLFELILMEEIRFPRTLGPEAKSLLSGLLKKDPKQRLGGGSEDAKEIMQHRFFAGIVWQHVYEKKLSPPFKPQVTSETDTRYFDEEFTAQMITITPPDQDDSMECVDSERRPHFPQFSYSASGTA
Chain of JNK3 (r) (P49187 whole entry): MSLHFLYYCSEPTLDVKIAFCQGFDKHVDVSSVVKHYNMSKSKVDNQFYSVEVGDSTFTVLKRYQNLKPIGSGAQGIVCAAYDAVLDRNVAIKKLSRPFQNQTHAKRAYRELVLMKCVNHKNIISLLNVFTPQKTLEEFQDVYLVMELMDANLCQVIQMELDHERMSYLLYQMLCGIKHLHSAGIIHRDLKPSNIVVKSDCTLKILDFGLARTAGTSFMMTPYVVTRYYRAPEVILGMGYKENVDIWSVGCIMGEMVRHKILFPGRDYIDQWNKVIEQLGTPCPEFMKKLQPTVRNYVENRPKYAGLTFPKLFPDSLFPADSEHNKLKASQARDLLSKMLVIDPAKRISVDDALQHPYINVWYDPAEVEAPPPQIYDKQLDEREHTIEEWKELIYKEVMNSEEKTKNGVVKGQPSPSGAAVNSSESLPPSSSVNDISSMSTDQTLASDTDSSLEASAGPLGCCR
Chain of c-RAF (h) (P04049 whole entry): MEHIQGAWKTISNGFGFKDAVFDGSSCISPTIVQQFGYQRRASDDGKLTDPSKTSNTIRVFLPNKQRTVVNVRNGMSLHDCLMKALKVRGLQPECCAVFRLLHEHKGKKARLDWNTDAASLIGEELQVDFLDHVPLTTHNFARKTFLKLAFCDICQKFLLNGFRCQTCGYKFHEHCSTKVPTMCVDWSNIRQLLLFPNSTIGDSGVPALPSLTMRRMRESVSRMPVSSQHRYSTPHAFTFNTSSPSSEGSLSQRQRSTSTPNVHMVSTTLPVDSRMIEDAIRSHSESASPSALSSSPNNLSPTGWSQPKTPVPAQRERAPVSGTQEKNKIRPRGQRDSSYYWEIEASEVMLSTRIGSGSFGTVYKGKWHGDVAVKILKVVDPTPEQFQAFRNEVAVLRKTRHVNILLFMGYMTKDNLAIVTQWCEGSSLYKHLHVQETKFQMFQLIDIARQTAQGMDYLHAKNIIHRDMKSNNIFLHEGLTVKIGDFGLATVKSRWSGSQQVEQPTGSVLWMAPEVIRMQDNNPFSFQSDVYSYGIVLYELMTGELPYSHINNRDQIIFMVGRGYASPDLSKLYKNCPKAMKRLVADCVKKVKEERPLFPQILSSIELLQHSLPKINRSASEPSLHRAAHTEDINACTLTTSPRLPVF

As to `c1ccc(Nc2ncnc3[nH]cnc23)cc1` [Verbd. 1, Phenyl-(9H-purin-6-yl)-amin], the inhibition at 30 µM in assay [1] was 14%; in assay [2], 11%; in [3] it was 39%; in [4] it was 33%; in assay [5], 34%; in assay [6] it was 22%. The inhibition at 30 µM in assay [7] came to 19%; in assay [10], 19%; in [11] it was 13%. Moreover, the “Hemmung von Kinasen in % PKA (h)” value in assay [8] is listed as 32%. In addition, in [9], the “Hemmung von Kinasen in % ROCKII (h)” value is given as 48%.

With `Fc1ccc(Nc2ncnc3[nH]cnc23)cc1` [Verbd. 2, (4-Fluoro-phenyl)-(9H-purin-6-yl)-amin], the inhibition at 30 µM in assay [1] stood at 18%; in assay [2] it was 10%; in assay [3], 42%; in [4], 48%; in assay [5], 30%; in assay [6] it was 33%. The inhibition at 30 µM in assay [7] came out at 34%; in assay [10], 24%; in assay [11], 13%. For the same compound, the “Hemmung von Kinasen in % PKA (h)” value in [8] amounted to 40%. Besides, the “Hemmung von Kinasen in % ROCKII (h)” value in assay [9] is recorded as 52%.

As for `c1ccc(CSc2ncnc3[nH]cnc23)cc1` [Verbd. 9, 6-Benzylsulfanyl-9H-purin], the inhibition at 30 µM in assay [1] was determined as 4%; in [2], 7%; in [3] it was 22%; in assay [4], 12%; in assay [5], 50%; in [6], 15%. For the same compound, the inhibition at 30 µM was found to be 7% in [7], 53% in assay [10] and 35% in assay [11]. In addition, the “Hemmung von Kinasen in % PKA (h)” value in assay [8] was found to be 13%. In [9], the “Hemmung von Kinasen in % ROCKII (h)” value is 28%.

`Fc1ccc(CSc2ncnc3[nH]cnc23)cc1` [Verbd. 10, 6-(4-Fluoro-benzylsulfanyl)-9H-purin]: the inhibition at 30 µM in assay [1] was 6%; in [2], 12%; in assay [3], 16%; in assay [4], 5%; in [5], 29%; in [6], 9%. In addition, the inhibition at 30 µM in assay [7] amounted to 0%; in assay [10], 47%; in [11], 0%. Further, in assay [9], the “Hemmung von Kinasen in % ROCKII (h)” value was 18%.

Take `Cn1cnc2c(Nc3ccccc3)ncnc21` [Verbd. 13, (9-Methyl-9H-purin-6-yl)-phenyl-amin]: the inhibition at 30 µM worked out at 0% in [1]; 5% in [2]; 18% in [3]; 42% in assay [4]; 0% in assay [5]; 16% in assay [6]. Moreover, the figures for the inhibition at 30 µM in assay [7], in assay [10] and in [11] were 4%, 44% and 26%, respectively. For the same compound, the “Hemmung von Kinasen in % PKA (h)” value in assay [8] came out at 0%. Moreover, the “Hemmung von Kinasen in % ROCKII (h)” value in assay [9] is 0%.

`Cn1cnc2c(Nc3ccc(F)cc3)ncnc21` [Verbd. 14, (4-Fluoro-phenyl)-(9-methyl-9H-purin-6-yl)-amin]: the inhibition at 30 µM in assay [1] came out at 0%; in [2], 19%; in assay [3] it was 9%; in [4], 57%; in assay [5], 13%; in assay [6], 36%. Besides, the inhibition at 30 µM in assay [7] came out at 8%; in [10], 27%; in assay [11], 14%. The “Hemmung von Kinasen in % PKA (h)” value in assay [8] was 0%. Also, the “Hemmung von Kinasen in % ROCKII (h)” value in [9] is on record as 7%.

As to `c1ccc(Sc2ncnc3[nH]cnc23)cc1` [Verbd. 15, 6-Phenylsulfanyl-9H-purin], the inhibition at 30 µM stood at 0% in [1]; 0% in assay [2]; 5% in [3]; 13% in assay [4]; 54% in assay [5]; 3% in assay [6]. Further, the inhibition at 30 µM is 0% in [7], 6% in assay [10] and 1% in assay [11]. Further, the “Hemmung von Kinasen in % PKA (h)” value in assay [8] is 8%. For the same compound, in [9], the “Hemmung von Kinasen in % ROCKII (h)” value is given as 33%.

As to `Fc1ccc(Sc2ncnc3[nH]cnc23)cc1` [Verbd. 16, 6-(4-Fluoro-phenylsulfanyl)-9H-purin], the inhibition at 30 µM in [1] turned out to be 0%; in assay [2] it was 8%; in assay [3], 13%; in assay [4] it was 12%; in assay [5], 72%; in assay [6], 2%. Also, the inhibition at 30 µM turned out to be 2% in [7], 29% in [10] and 0% in [11]. Besides, in assay [8], the “Hemmung von Kinasen in % PKA (h)” value is 10%. For the same compound, in assay [9], the “Hemmung von Kinasen in % ROCKII (h)” value worked out at 37%.

Turning to `Cn1cnc2c(Sc3ccc(F)cc3)ncnc21` [Verbd. 18, 6-(4-Fluoro-phenylsulfanyl)-9-methyl-9H-purin], the inhibition at 30 µM was 0% in [1]; 9% in assay [2]; 2% in assay [3]; 12% in assay [4]; 38% in assay [5]; 9% in assay [6]. Moreover, the inhibition at 30 µM in assay [7] turned out to be 6%; in assay [10] it was 12%; in [11] it was 0%. For the same compound, the “Hemmung von Kinasen in % PKA (h)” value in assay [8] stood at 1%. Further, in assay [9], the “Hemmung von Kinasen in % ROCKII (h)” value is 6%.

(Values after EP1444982A1, “The use of purine derivatives as selective kinase inhibitors” (MERCKLE GMBH, priority 2003, dated 2004).)
